Measured values as given in patent US4670540A, “Novel peptide” (Ajinomoto Co., Inc., priority 1984, dated 1987).

How the values were obtained:
rat aortic strips = experiment: Spasmolytic activity in rat aortic strips; type: cell-based; settings: aortic strips contracted with norepinephrine (5×10^-8 M); specific activity, α-hANP[1-28] = 100; mean ± standard error, number of experiments in parentheses
Description: (1) Spasmolytic activity in rat aortic strips. Male Sprague-Dawley rats weighing 250-280 g were used. After the rats were decapitated, their thoracic aorta were obtained and aortic helical strips were prepared. Krebs solution was used in this assay system. The aortic strips were suspended in a 20 ml organ-bath which was aerated with 5% carbon dioxide and 95% oxygen and kept at 37° ±0.5° C. The aortic tension was recorded isotonically. The isotonic recording system, consisted of a transducer and amplifier (ME commercial ME4012) and a recorder (Sanei 8K21). A resting tension of 0.5 g was loaded on the aortic strips. The prepared strips were left under the described conditions for 1 hour to obtain the stable tension. The aortic preparation contracted with norepinephrine (5×10^-8 M) was exposed to ANP to examine its relaxant activity. The dose response curve was obtained for the α-hANP(1-28) and the ANP fragment in the same preparation. The 50% effective dose (ED50) for each preparation was obtained and the ratio was used as the specific activity.

chick rectum = experiment: Spasmolytic activity in chick rectum; type: cell-based; settings: rectum contracted with carbachol (2×10^-7 M); specific activity, α-hANP[1-28] = 100; mean ± standard error, number of experiments in parentheses
Description: (2) Spasmolytic activity in chick rectum. Male, 2- to 3-week-old chicks weighing 155-175 g were used. After the chicks were anesthetized with pentobarbital (6 mg/kg, ip), their rectums were excised. Krebs solution was used. The rectums were suspended in 20 ml organ-bath aerated with 5% carbon dioxide and 95% oxygen and kept at 37° ±0.5° C. Contractile tension of the rectum was determined isotonically. The isotonic recording system used was the same as that used in testing the rat aortic preparations. The rectal preparations were stabilized by keeping them under 0.5 g of tension conditions for 1 hour. The rectal preparations contracted with carbachol (2×10^-7 M),were exposed to ANP to examine its relaxing effect. As with the rat aortic preparations, ED50 for the standard α-haNP(1-28) and for the ANP fragment were determined, and the specific activity were calculated.

Compound: CC[C@H](C)[C@@H]1NC(=O)[C@H](CCCNC(=N)N)NC(=O)[C@H](CC(=O)O)NC(=O)[C@H](CCSC)NC(=O)[C@H](CCCNC(=N)N)NC(=O)CNC(=O)CNC(=O)[C@H](Cc2ccccc2)NC(=O)[C@@H](NC(=O)[C@H](CO)NC(=O)[C@H](CO)NC(=O)[C@H](CCCNC(=N)N)NC(=O)[C@H](CCCNC(=N)N)NC(=O)[C@H](CC(C)C)NC(=O)[C@@H](N)CO)CSSC[C@@H](C(=O)N[C@@H](CC(N)=O)C(=O)N[C@@H](CO)C(=O)N[C@@H](Cc2ccccc2)C(=O)N[C@@H](CCCNC(=N)N)C(=O)N[C@@H](Cc2ccc(O)cc2)C(=O)O)NC(=O)CNC(=O)[C@H](CC(C)C)NC(=O)CNC(=O)[C@H](CO)NC(=O)[C@H](CCC(N)=O)NC(=O)[C@H](C)NC(=O)CNC1=O [α-hANP[1-28], α-human atrial natriuretic peptide]
- Spasmolytic Activity in Rat Aorta (ratio of ED50 to the standard hANP (1-28)) (rat aortic strips): 100
- Spasmolytic Activity in Chick Rectum (ratio of ED50 to the standard hANP (1-28)) (chick rectum): 100

Compound: (Nle^12)α-hANP(1-28) [[Nle^12]-α-hANP[1-28]]
- Spasmolytic Activity in Rat Aorta (ratio of ED50 to the standard hANP (1-28)) (rat aortic strips): 80.5 ± 12.2
- Spasmolytic Activity in Chick Rectum (ratio of ED50 to the standard hANP (1-28)) (chick rectum): 70.3 ± 10.9
